Assay [1] has as its target T1, NAMPT (Homo sapiens, UniProt P43490). In words: Time-Resolved Fluorescence Resonance Energy Transfer (TR-FRET) Binding Assay of NAMPT. The note with it: 6.8 nM NAMPT, 200 nM probe, equilibrated 3 hours, no substrates. A digest of the protocol:
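IC50s come from four-parameter logistic fits of control-normalized Em520/Em495 TR-FRET ratios (Ex 337 nm) against compound concentration. Before reading, enzyme, probe, antibody and compound equilibrated for 3 h at room temperature.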
In general terms: Time-resolved FRET reads energy transfer from a long-lived donor to a nearby acceptor.

Assay [2] concerns the target T1, NAMPT. In words: TR-FRET Binding Assay of NAMPT with PRPP. The note with it: 2 nM NAMPT, 2 nM probe, 200 µM PRPP and 2.5 mM ATP, equilibrated 16 hours. How it is done:
Time-Resolved Fluorescence Resonance Energy Transfer (TR-FRET) Binding Assay of NAMPT with PRPP
Compound handling and data processing were identical to the assay in the absence of substrates (above). Final concentrations were 1× assay buffer, 2% DMSO, 2 nM NAMPT, 2 nM probe, 1 nM Tb-anti-His antibody (Invitrogen #PV5895), 200 µM PRPP and 2.5 mM ATP. Reactions were equilibrated for 16 hours prior to measurement to allow for potential enzymatic modification of test compounds.

A further assay relates to PC3 cells. In words: NAMPT Cell Proliferation Assay (Cell Titer Glo). In kind it is cell-based. As to conditions: Homo sapiens, PC-3, 120 h, incubated 5 days, cell viability. The essentials: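 Viability measured by Cell Titer Glo luminescence after 5-day exposure of attached PC3 cells to compound, dosed as 10-fold serial dilutions ([…]) in RPMI/10% FBS at 37 °C and 5% CO2. Percent inhibition fitted to sigmoidal dose-response curves for IC50.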
In general terms: ATP-based viability assays read luminescence as a measure of living cells.

Broadly, the IC50 is the concentration that inhibits the measured activity by half. Low values mean greater potency in that assay, high ones weaker potency in that assay.

The structures appear in SMILES notation.

T1 sequence (P43490 whole entry): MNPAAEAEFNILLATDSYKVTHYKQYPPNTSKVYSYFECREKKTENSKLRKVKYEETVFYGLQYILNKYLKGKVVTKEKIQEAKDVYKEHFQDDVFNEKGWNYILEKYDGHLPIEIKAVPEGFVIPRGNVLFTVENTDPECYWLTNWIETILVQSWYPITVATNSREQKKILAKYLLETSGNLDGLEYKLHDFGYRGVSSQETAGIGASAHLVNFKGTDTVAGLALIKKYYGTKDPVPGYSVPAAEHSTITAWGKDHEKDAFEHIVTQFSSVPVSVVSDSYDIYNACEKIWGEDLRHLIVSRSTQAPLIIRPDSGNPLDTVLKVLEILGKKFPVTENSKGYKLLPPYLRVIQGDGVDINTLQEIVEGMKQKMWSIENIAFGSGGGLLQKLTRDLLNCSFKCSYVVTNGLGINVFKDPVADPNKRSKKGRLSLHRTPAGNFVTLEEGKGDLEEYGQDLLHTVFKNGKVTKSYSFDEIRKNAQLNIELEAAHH

Regarding `O=C(Nc1ccc(C2=CCN(C(=O)C3CC3)CC2)cc1)N1CC(c2cccnc2)C1` [Example 25, N-{4-[1-(cyclopropylcarbonyl)-1,2,3,6-tetrahydropyridin-4-yl]phenyl}-3-(pyridin-3-yl)azetidine-1-carboxamide], the 50% inhibitory concentration (IC50) worked out at 37.4 nM on NAMPT [1], 0.362 nM on NAMPT [2] and 27.1 nM in the assay with PC3 cells.

Consider `O=C(CC1CC1)N1CC=C(c2ccc(NC(=O)N3CC(c4cccnc4)C3)cc2)CC1` [Example 26, N-{4-[1-(cyclopropylacetyl)-1,2,3,6-tetrahydropyridin-4-yl]phenyl}-3-(pyridin-3-yl)azetidine-1-carboxamide], for which the IC50 at NAMPT [1] turned out to be 73.6 nM; at NAMPT [2] it was 0.724 nM; in the assay with PC3 cells, 172 nM.

`CC(C)C(=O)N1CC=C(c2ccc(NC(=O)N3CC(c4cccnc4)C3)cc2)CC1` [Example 27, N-{4-[1-(2-methylpropanoyl)-1,2,3,6-tetrahydropyridin-4-yl]phenyl}-3-(pyridin-3-yl)azetidine-1-carboxamide]: the IC50 at NAMPT [1] is 13 nM; at NAMPT [2], 0.243 nM; in the assay with PC3 cells it was 9.2 nM.

Regarding `O=C(Nc1ccc(OC2CN(C(=O)[C@H]3CCCO3)C2)cc1)N1CC(c2cccnc2)C1` [Example 28, 3-(pyridin-3-yl)-N-[4-({1-[(2R)-tetrahydrofuran-2-ylcarbonyl]azetidin-3-yl}oxy)phenyl]azetidine-1-carboxamide], the concentration for half-maximal inhibition (IC50) at NAMPT [1] was 77.2 nM; at NAMPT [2], 0.218 nM; with PC3 cells, 64.2 nM.

On to `O=C(Nc1ccc(OC2CN(C(=O)[C@@H]3CCCO3)C2)cc1)N1CC(c2cccnc2)C1` [Example 29, 3-(pyridin-3-yl)-N-[4-({1-[(2S)-tetrahydrofuran-2-ylcarbonyl]azetidin-3-yl}oxy)phenyl]azetidine-1-carboxamide], for which the IC50 on NAMPT [1] came to 53.4 nM; at NAMPT [2], 0.243 nM; in the assay with PC3 cells, 66.1 nM.

For `CC(C)(O)C(=O)N1CC(Oc2ccc(NC(=O)N3CC(c4cccnc4)C3)cc2)C1` [Example 30, N-(4-{[1-(2-hydroxy-2-methylpropanoyl)azetidin-3-yl]oxy}phenyl)-3-(pyridin-3-yl)azetidine-1-carboxamide], the IC50 on NAMPT [1] turned out to be 69.4 nM; on NAMPT [2], 0.255 nM; in the assay with PC3 cells, 125 nM.

On to `O=C(Nc1ccc(OC2CCN(C(=O)[C@@H]3CCCO3)CC2)cc1)N1CC(c2cccnc2)C1` [Example 31, 3-(pyridin-3-yl)-N-[4-({1-[(2S)-tetrahydrofuran-2-ylcarbonyl]piperidin-4-yl}oxy)phenyl]azetidine-1-carboxamide], for which the half-inhibitory concentration (IC50) at NAMPT [1] amounted to 40.6 nM; on NAMPT [2], 0.33 nM; in the assay on PC3 cells, 38.9 nM.

Take `O=C(Nc1ccc(OC2CCN(C(=O)c3cccs3)CC2)cc1)N1CC(c2cccnc2)C1` [Example 32, 3-(pyridin-3-yl)-N-(4-{[1-(thiophen-2-ylcarbonyl)piperidin-4-yl]oxy}phenyl)azetidine-1-carboxamide]: the IC50 at NAMPT [1] came to 18.8 nM; on NAMPT [2], 0.209 nM; in the assay on PC3 cells, 58.7 nM.

For the compound `O=C(Nc1ccc(OC2CCN(C(=O)c3ccsc3)CC2)cc1)N1CC(c2cccnc2)C1` [Example 33, 3-(pyridin-3-yl)-N-(4-{[1-(thiophen-3-ylcarbonyl)piperidin-4-yl]oxy}phenyl)azetidine-1-carboxamide], the IC50 at NAMPT [1] was determined as 56.1 nM; at NAMPT [2], 0.43 nM; in the assay on PC3 cells it was 68.7 nM.

For the compound `CC(=O)N1CCC(C(=O)N2CCC(Oc3ccc(NC(=O)N4CC(c5cccnc5)C4)cc3)CC2)CC1` [Example 34, N-[4-({1-[(1-acetylpiperidin-4-yl)carbonyl]piperidin-4-yl}oxy)phenyl]-3-(pyridin-3-yl)azetidine-1-carboxamide], the half-inhibitory concentration (IC50) on NAMPT [1] stood at 50.7 nM; on NAMPT [2], 0.264 nM; in the assay with PC3 cells it was 62.4 nM.

For the compound `CC1CC1C(=O)N1CCC(Oc2ccc(NC(=O)N3CC(c4cccnc4)C3)cc2)CC1` (stereo not drawn) [Example 35, N-[4-({1-[(2-methylcyclopropyl)carbonyl]piperidin-4-yl}oxy)phenyl]-3-(pyridin-3-yl)azetidine-1-carboxamide], the IC50 came out at 89.2 nM on NAMPT [1], 0.492 nM on NAMPT [2] and 90.2 nM in the assay on PC3 cells.

On to `O=C(CCN1CCOCC1)N1CCC(Oc2ccc(NC(=O)N3CC(c4cccnc4)C3)cc2)CC1` [Example 37, N-[4-({1-[3-(morpholin-4-yl)propanoyl]piperidin-4-yl}oxy)phenyl]-3-(pyridin-3-yl)azetidine-1-carboxamide], for which the IC50 stood at 85.4 nM at NAMPT [1], 0.174 nM at NAMPT [2] and 72.9 nM in the assay with PC3 cells.

For the compound `CN1CCN(CCC(=O)N2CCC(Oc3ccc(NC(=O)N4CC(c5cccnc5)C4)cc3)CC2)CC1` [Example 38, N-[4-({1-[3-(4-methylpiperazin-1-yl)propanoyl]piperidin-4-yl}oxy)phenyl]-3-(pyridin-3-yl)azetidine-1-carboxamide], the IC50 came to 34.3 nM on NAMPT [1], 0.201 nM on NAMPT [2] and 83.6 nM in the assay on PC3 cells.

As for `O=C(CCN1CCCC1)N1CCC(Oc2ccc(NC(=O)N3CC(c4cccnc4)C3)cc2)CC1` [Example 39, 3-(pyridin-3-yl)-N-[4-({1-[3-(pyrrolidin-1-yl)propanoyl]piperidin-4-yl}oxy)phenyl]azetidine-1-carboxamide], the results for the IC50 on NAMPT [1], at NAMPT [2] and with PC3 cells were 90.5 nM, 0.338 nM and 115 nM, respectively.

Turning to `O=C(CC1CC1)N1CCC(Oc2ccc(NC(=O)N3CC(c4cccnc4)C3)cc2)CC1` [Example 40, N-(4-{[1-(cyclopropylacetyl)piperidin-4-yl]oxy}phenyl)-3-(pyridin-3-yl)azetidine-1-carboxamide], the results for the IC50 at NAMPT [1], on NAMPT [2] and with PC3 cells were 50.5 nM, 0.419 nM and 26.4 nM, respectively.

Take `CCC(C)CC(=O)N1CCC(Oc2ccc(NC(=O)N3CC(c4cccnc4)C3)cc2)CC1` (stereo not drawn) [Example 41, N-(4-{[1-(3-methylpentanoyl)piperidin-4-yl]oxy}phenyl)-3-(pyridin-3-yl)azetidine-1-carboxamide]: the IC50 at NAMPT [1] is 76.8 nM; at NAMPT [2] it was 0.448 nM; in the assay with PC3 cells it was 69.8 nM.

With `CC(C)CCC(=O)N1CCC(Oc2ccc(NC(=O)N3CC(c4cccnc4)C3)cc2)CC1` [Example 42, N-(4-{[1-(4-methylpentanoyl)piperidin-4-yl]oxy}phenyl)-3-(pyridin-3-yl)azetidine-1-carboxamide], the values for the concentration for half-maximal inhibition (IC50) on NAMPT [1], at NAMPT [2] and in the assay with PC3 cells were 43.8 nM, 0.27 nM and 100 nM, respectively.

In the case of `CCCC(=O)N1CCC(Oc2ccc(NC(=O)N3CC(c4cccnc4)C3)cc2)CC1` [Example 43, N-{4-[(1-butanoylpiperidin-4-yl)oxy]phenyl}-3-(pyridin-3-yl)azetidine-1-carboxamide], the values for the IC50 on NAMPT [1], on NAMPT [2] and in the assay on PC3 cells were 23.7 nM, 0.234 nM and 28 nM, respectively.

`CC(C)(C)C(=O)N1CCC(Oc2ccc(NC(=O)N3CC(c4cccnc4)C3)cc2)CC1` [Example 44, N-(4-{[1-(2,2-dimethylpropanoyl)piperidin-4-yl]oxy}phenyl)-3-(pyridin-3-yl)azetidine-1-carboxamide]: the 50% inhibitory concentration (IC50) at NAMPT [1] worked out at 44.6 nM; at NAMPT [2], 0.315 nM; with PC3 cells it was 38.5 nM.

Regarding `CC(C)(C)CC(=O)N1CCC(Oc2ccc(NC(=O)N3CC(c4cccnc4)C3)cc2)CC1` [Example 45, N-(4-{[1-(3,3-dimethylbutanoyl)piperidin-4-yl]oxy}phenyl)-3-(pyridin-3-yl)azetidine-1-carboxamide], the values for the IC50 on NAMPT [1], at NAMPT [2] and with PC3 cells were 34.3 nM, 0.223 nM and 63.4 nM, respectively.

For the compound `CCOCC(=O)N1CCC(Oc2ccc(NC(=O)N3CC(c4cccnc4)C3)cc2)CC1` [Example 46, N-(4-{[1-(ethoxyacetyl)piperidin-4-yl]oxy}phenyl)-3-(pyridin-3-yl)azetidine-1-carboxamide], the IC50 on NAMPT [1] is 93.1 nM; on NAMPT [2], 0.226 nM; in the assay on PC3 cells it was 44.2 nM.

As to `O=C(Nc1ccc(OC2CCN(C(=O)C3CC3)CC2)cc1)N1CC(c2cccnc2)C1` [Example 47, N-(4-{[1-(cyclopropylcarbonyl)piperidin-4-yl]oxy}phenyl)-3-(pyridin-3-yl)azetidine-1-carboxamide], the IC50 at NAMPT [1] was found to be 30.3 nM; on NAMPT [2], 0.268 nM; in the assay with PC3 cells, 64 nM.

Turning to `O=C(NCC1CCOC1)c1ccc(NC(=O)N2CC(c3cccnc3)C2)cc1` (stereo not drawn) [Example 49, 3-(pyridin-3-yl)-N-{4-[(tetrahydrofuran-3-ylmethyl)carbamoyl]phenyl}azetidine-1-carboxamide], the IC50 at NAMPT [1] came out at 150 nM; on NAMPT [2], 0.245 nM; in the assay on PC3 cells it was 80.1 nM.

Consider `CC(C)(O)C(=O)N1CCC(c2ccc(NC(=O)N3CC(c4cccnc4)C3)cc2)CC1` [Example 51, N-{4-[1-(2-hydroxy-2-methylpropanoyl)piperidin-4-yl]phenyl}-3-(pyridin-3-yl)azetidine-1-carboxamide], for which the IC50 on NAMPT [1] amounted to 17.2 nM; at NAMPT [2], 0.303 nM; in the assay with PC3 cells it was 1.78 nM.

In the case of `O=C(Nc1ccc(C2CCN(C(=O)c3ccccc3)CC2)cc1)N1CC(c2cccnc2)C1` [Example 57, N-[4-(1-benzoylpiperidin-4-yl)phenyl]-3-(pyridin-3-yl)azetidine-1-carboxamide], the IC50 came out at 6.85 nM at NAMPT [1], 0.222 nM on NAMPT [2] and 3.58 nM in the assay on PC3 cells.

The record behind these values is patent publication US9296723B2, “NAMPT inhibitors” (AbbVie Inc., priority 2012, dated 2016).
